The source of these data is patent US7226923B2, “Phthalazinone derivatives” (Hoffman-La Roche Inc., priority 2004, dated 2007).

The target in this assay is T1, Aurora A (Homo sapiens, UniProt O14965).
T1 construct: C-terminally Histidine4 (His4)-tagged Aurora A full-length protein
T1 sequence (O14965 1-403): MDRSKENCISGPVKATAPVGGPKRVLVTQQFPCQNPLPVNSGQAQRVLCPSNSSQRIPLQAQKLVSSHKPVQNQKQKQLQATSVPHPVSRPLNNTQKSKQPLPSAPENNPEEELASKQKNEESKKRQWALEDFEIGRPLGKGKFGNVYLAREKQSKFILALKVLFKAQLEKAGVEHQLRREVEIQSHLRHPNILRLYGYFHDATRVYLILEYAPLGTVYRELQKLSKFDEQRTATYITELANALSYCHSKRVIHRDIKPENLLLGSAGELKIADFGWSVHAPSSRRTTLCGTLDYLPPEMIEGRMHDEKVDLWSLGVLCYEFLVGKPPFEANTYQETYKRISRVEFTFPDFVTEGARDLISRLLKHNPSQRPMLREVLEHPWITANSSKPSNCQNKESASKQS
The assay can be described thus: IC50 determination for inhibitors of Aurora A (96 MTP-ELISA). The format is biochemical. The note with it: His4-tagged full-length Aurora A 250 ng/ml, PKB-GSK2 200 nM, ATP 4 μM, 90 min at room temperature, read-out: IC50 Aurora A kinase inhibition. Here is the method: IC50 Determination for Inhibitors of Aurora A
• Aurora A is a serine threonine kinase involved in spindle assembly and chromosome segregation.
The assay is a typically ELISA-type assay where biotinylated substrate (PKB-GSK2) is phosphorylated. Phosphorylation is detected by peroxidase (POD) labelled polyclonal antibody (PAK<M-Ig>S-IgG-POD) and phosphopeptide monoclonal antibody (Mab) (MAK<P-GSK>M-27E5-IgG). The assay is validated for IC50-determination.
Method • This assay is performed in 96-well format for IC50 determination with 5 samples (each with 8 concentrations by twofold testing), 100 μl incubation volume and the following plate layout: […]

In the case of `Cc1cc(Nc2nn(Cc3cccc(C(=O)O)c3)c(=O)c3ccccc23)n[nH]1` [Example A-24, 3-[4-(5-Methyl-1H-pyrazol-3-ylamino)-1-oxo-1H-phthalazin-2-ylmethyl]-benzoic acid], the IC50 was 0.001 to 0.1 µM.

For the compound `COc1ccc(Cn2nc(Nc3cc(C)[nH]n3)c3ccccc3c2=O)cc1` [Example A-11, 2-(4-Methoxy-benzyl)-4-(5-methyl-1H-pyrazol-3-ylamino)-2H-phthalazin-1-one], the IC50 fell in the range of 0.001 to 0.1 µM. `COCC(C)n1nc(Nc2cc(C)n[nH]2)c2ccccc2c1=O` (stereo not shown) [Example O-2, 2-(2-Methoxy-1-methyl-ethyl)-4-(5-methyl-2H-pyrazol-3-ylamino)-2H-phthalazin-1-one]: the IC50 fell in the range of 0.1 to 1 µM. In the case of `CNc1ccc2c(Nc3cc(C)[nH]n3)nn(C(C)C)c(=O)c2c1` [Example I-12, 2-Isopropyl-7-methylamino-4-(5-methyl-1H-pyrazol-3-ylamino)-2H-phthalazin-1-one] it was 0.001 to 0.1 µM; in that of `COc1ccc(C(=O)Cn2nc(Nc3cc(C)[nH]n3)c3ccccc3c2=O)cc1` [Example E-4, 2-[2-(4-Methoxy-phenyl)-2-oxo-ethyl]-4-(5-methyl-1H-pyrazol-3-ylamino)-2H-phthalazin-1-one], 0.001 to 0.1 µM.

`Cc1cc(Nc2nn(C(C)C)c(=O)c3cc(S(C)(=O)=O)ccc23)n[nH]1` [Example H-2, 2-Isopropyl-7-methanesulfonyl-4-(5-methyl-1H-pyrazol-3-ylamino)-2H-phthalazin-1-one]: the IC50 lay in the range of 0.001 to 0.1 µM. In the case of `CC(=O)N(C)c1ccc2c(Nc3cc(C)[nH]n3)nn(C(C)C)c(=O)c2c1` [Example I-5, N-[3-Isopropyl-1-(5-methyl-1H-pyrazol-3-ylamino)-4-oxo-3,4-dihydro-phthalazin-6-yl]-N-methyl-acetamide] it was 0.001 to 0.1 µM; in that of `Cc1ccc(-n2nc(Nc3cc[nH]n3)c3ccccc3c2=O)cc1` [Example A-10, 4-(1H-Pyrazol-3-ylamino)-2-p-tolyl-2H-phthalazin-1-one], 0.1 to 1 µM. On to `CCOC(=O)Nc1ccc(-n2nc(Nc3cc(C)[nH]n3)c3ccccc3c2=O)cc1` [Example Y-2, {4-[4-(5-Methyl-1H-pyrazol-3-ylamino)-1-oxo-1H-phthalazin-2-yl]-phenyl}-carbamic acid ethyl ester], for which the IC50 is 0.001 to 0.1 µM.

On to `COc1ccc(-n2nc(Nc3cc(C)[nH]n3)c3ccccc3c2=O)cc1` [Example A-9, 2-(4-Methoxy-phenyl)-4-(5-methyl-1H-pyrazol-3-ylamino)-2H-phthalazin-1-one], for which the IC50 lay in the range of 0.001 to 0.1 µM.

Consider `Cc1cc(Nc2nn(C(C)C)c(=O)c3cc(CN4CCN(C)CC4)ccc23)n[nH]1` [Example L-1, 2-Isopropyl-7-(4-methyl-piperazin-1-ylmethyl)-4-(5-methyl-1H-pyrazol-3-ylamino)-2H-phthalazin-1-one], for which the IC50 lay in the range of 0.001 to 0.1 µM. In the case of `Cc1cc(Nc2nn(C(C)C)c(=O)c3ccccc23)n[nH]1` [Example A-23, 2-Isopropyl-4-(5-methyl-1H-pyrazol-3-ylamino)-2H-phthalazin-1-one] it was 0.001 to 0.1 µM; in that of `CONC(=O)c1ccc2c(Nc3cc(C)[nH]n3)nn(C(C)C)c(=O)c2c1` [Example M-4, 3-Isopropyl-1-(5-methyl-1H-pyrazol-3-ylamino)-4-oxo-3,4-dihydro-phthalazine-6-carboxylic acid methoxy-amide], 0.001 to 0.1 µM. In the case of `Cc1cc(Nc2nn(C(C)C)c(=O)c3cc(N(C)Cc4ccncc4)ccc23)n[nH]1` [Example I-2, 2-Isopropyl-4-(5-methyl-1H-pyrazol-3-ylamino)-7-(methyl-pyridin-4-ylmethyl-amino)-2H-phthalazin-1-one] it was 0.001 to 0.1 µM; in that of `Cc1cc(Nc2nn(-c3ccc(C(F)(F)F)cc3Cl)c(=O)c3ccccc23)n[nH]1` [Example W-1, 2-(2-Chloro-4-trifluoromethyl-phenyl)-4-(5-methyl-1H-pyrazol-3-ylamino)-2H-phthalazin-1-one], 0.1 to 1 µM.

`Cc1cc(Nc2nn(-c3ccc(-c4ccccc4C)cc3)c(=O)c3ccccc23)n[nH]1` [Example Q-2, 2-(2′-Methyl-biphenyl-4-yl)-4-(5-methyl-1H-pyrazol-3-ylamino)-2H-phthalazin-1-one]: the IC50 lay within 0.001 to 0.1 µM. In the case of `Cc1cc(Nc2nn(-c3ccc(NS(C)(=O)=O)cc3)c(=O)c3ccccc23)n[nH]1` [Example T-5, N-{4-[4-(5-Methyl-1H-pyrazol-3-ylamino)-1-oxo-1H-phthalazin-2-yl]-phenyl}-methanesulfonamide] it was 0.001 to 0.1 µM; in that of `Cc1cc(Nc2nn(C(C)C)c(=O)c3ccc(N(C)C)cc23)n[nH]1` [Example F-7, 2-Isopropyl-4-(5-methyl-1H-pyrazol-3-ylamino)-6-dimethylamino-2H-phthalazin-1-one], 0.1 to 1 µM. To `Cc1cc(Nc2nn(-c3ccc4ccccc4c3)c(=O)c3ccccc23)n[nH]1` [Example R-3, 4-(5-Methyl-1H-pyrazol-3-ylamino)-2-naphthalen-2-yl-2H-phthalazin-1-one] belongs 0.001 to 0.1 µM. In the case of `Cc1cc(Nc2nn(Cc3ccc(S(C)(=O)=O)cc3)c(=O)c3ccccc23)[nH]n1` [Example A-14, 2-(4-Methanesulfonyl-benzyl)-4-(5-methyl-2H-pyrazol-3-ylamino)-2H-phthalazin-1-one] it was 0.001 to 0.1 µM; in that of `Cc1cc(Nc2nn(-c3cccc(C(C)(C)C)c3)c(=O)c3ccccc23)n[nH]1` [Example X-2, 2-(3-tert-Butyl-phenyl)-4-(5-methyl-1H-pyrazol-3-ylamino)-2H-phthalazin-1-one], 0.001 to 0.1 µM; in that of `Cc1cc(Nc2nn(Cc3cccnc3)c(=O)c3ccccc23)[nH]n1` [Example A-18, 4-(5-Methyl-2H-pyrazol-3-ylamino)-2-pyridin-3-ylmethyl-2H-phthalazin-1-one], 0.001 to 0.1 µM.

Consider `CC(=O)Nc1ccc(-n2nc(Nc3cc(C)[nH]n3)c3ccccc3c2=O)cc1` [Example T-1, N-{4-[4-(5-Methyl-1H-pyrazol-3-ylamino)-1-oxo-1H-phthalazin-2-yl]-phenyl}-acetamide], for which the IC50 fell in the range of 0.1 to 1 µM.

With `COc1ccc2c(Nc3cc(C)[nH]n3)nn(Cc3ccccc3)c(=O)c2c1` [Example G-8, 2-Benzyl-7-methoxy-4-(5-methyl-1H-pyrazol-3-ylamino)-2H-phthalazin-1-one], the IC50 lay within 0.001 to 0.1 µM. In the case of `Cc1cc(Nc2nn(C(C)C)c(=O)c3cc(C(=O)O)ccc23)n[nH]1` [Example M-1, 3-Isopropyl-1-(5-methyl-1H-pyrazol-3-ylamino)-4-oxo-3,4-dihydro-phthalazine-6-carboxylic acid] it was 0.001 to 0.1 µM; in that of `Cc1cc(Nc2nn(C(C)C)c(=O)c3cc(NCCN4CCOCC4)ccc23)n[nH]1` [Example I-11, 2-Isopropyl-4-(5-methyl-1H-pyrazol-3-ylamino)-7-(2-morpholin-4-yl-ethylamino)-2H-phthalazin-1-one], 0.001 to 0.1 µM. In the case of `Cc1cc(Nc2nn(C(C)C)c(=O)c3cc(N(C)C)ccc23)n[nH]1` [Example F-6, 2-Isopropyl-4-(5-methyl-1H-pyrazol-3-ylamino)-7-dimethylamino-2H-phthalazin-1-one] it was 0.001 to 0.1 µM; in that of `Cc1cc(Nc2nn(-c3ccc(F)cc3)c(=O)c3ccccc23)n[nH]1` [Example A-7, 2-(4-Fluoro-phenyl)-4-(5-methyl-1H-pyrazol-3-ylamino)-2H-phthalazin-1-one], 0.001 to 0.1 µM.

As a reminder, the IC50 is the concentration at which inhibition is half-maximal.
